Results published in ChEMBL document CHEMBL1201862, “PubChem BioAssay data set” (2004).
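Assay format: 96-well plates, 48-hour exposure. Here, GI50 denotes the concentration required for 50% inhibition of growth.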 Active and inactive are the calls of the source. No stated cut-off is given here; in the data, active = GI50 up to about 1.1 µM and inactive = higher.

Legend:
Test in all cases: inhibition of tumour cell growth, NCI panel, 48 h
COLO 205 = test system: COLO 205
HCT-15 = test system: HCT-15
SNB-19 = test system: SNB-19
SF-295 = test system: SF-295
SK-MEL-5 = test system: SK-MEL-5
MOLT-4 = test system: MOLT-4
OVCAR-4 = test system: OVCAR-4
HOP-92 = test system: HOP-92
Malme-3M = test system: Malme-3M
SN12C = test system: SN12C
UO-31 = test system: UO-31
SF-268 = test system: SF-268
M19-MEL = test system: M19-MEL
SK-MEL-28 = test system: SK-MEL-28
OVCAR-3 = test system: OVCAR-3
NCI-H226 = test system: NCI-H226
RXF 393 = test system: RXF 393

`CCOC(=O)C12CC1(C(=O)OCC)C1CCC2C1` (stereo not given) was tested, and the GI50 (COLO 205) was > 100 µM (inactive), the GI50 (HCT-15) was greater than 100 µM and the GI50 (SNB-19) was > 100 µM (inactive). The GI50 (SF-295) was > 100 µM (inactive), the GI50 (SK-MEL-5) was 54.1 µM (inactive) and the GI50 (MOLT-4) was 90.6 µM (inactive). For the same compound, the GI50 (OVCAR-4) was > 100 µM (inactive), the GI50 (HOP-92) was 23.8 µM (inactive) and the GI50 (Malme-3M) was 91.8 µM (inactive). For the same compound, the GI50 (SN12C) was > 100 µM (inactive), the GI50 (UO-31) was > 100 µM (inactive) and the GI50 (SF-268) was > 100 µM (inactive). For the same compound, the GI50 (M19-MEL) was > 100 µM (inactive), the GI50 (SK-MEL-28) was > 100 µM (inactive) and the GI50 (OVCAR-3) was 97.3 µM (inactive). For the same compound, the GI50 (NCI-H226) was > 100 µM (inactive).
In the case of `Cc1cccc(/N=C2\NC(=O)C(CC(=O)Nc3ccc(C)cc3C)S2)c1` (stereo not given), the GI50 (HCT-15) is reported as greater than 100 µM, the GI50 (SNB-19) is reported as 74.8 µM (inactive) and the GI50 (SF-295) is reported as 61.9 µM (inactive). The GI50 (RXF 393) was > 100 µM (inactive), the GI50 (SK-MEL-5) was 94 µM (inactive) and the GI50 (MOLT-4) was 40.4 µM (inactive). For the same compound, the GI50 (OVCAR-4) was 48.5 µM (inactive), the GI50 (HOP-92) was 55.7 µM (inactive) and the GI50 (Malme-3M) was > 100 µM (inactive). The GI50 (SN12C) was > 100 µM (inactive), the GI50 (UO-31) was 66.7 µM (inactive) and the GI50 (SF-268) was > 100 µM (inactive). For the same compound, the GI50 (M19-MEL) was > 100 µM (inactive), the GI50 (SK-MEL-28) was > 100 µM (inactive) and the GI50 (OVCAR-3) was 69 µM (inactive). For the same compound, the GI50 (NCI-H226) was 84.3 µM (inactive).
In the case of `O=P1(Oc2ccc(Cl)cc2Cl)Oc2ccc3ccccc3c2-c2c(ccc3ccccc23)O1`, the GI50 (COLO 205) is reported as 46.5 µM (inactive), the GI50 (HCT-15) is reported as 26.5 µM and the GI50 (SNB-19) is reported as 29.5 µM (inactive). The GI50 (SF-295) was 34.8 µM (inactive), the GI50 (RXF 393) was 16 µM (inactive) and the GI50 (SK-MEL-5) was 49.5 µM (inactive). For the same compound, the GI50 (MOLT-4) was 19.9 µM (inactive), the GI50 (OVCAR-4) was 27.9 µM (inactive) and the GI50 (HOP-92) was 22.4 µM (inactive). The GI50 (Malme-3M) was 21.9 µM (inactive), the GI50 (SN12C) was 30.8 µM (inactive) and the GI50 (UO-31) was 20.4 µM (inactive). For the same compound, the GI50 (SF-268) was 34.7 µM (inactive), the GI50 (M19-MEL) was 19.9 µM (inactive) and the GI50 (SK-MEL-28) was 32.5 µM (inactive). For the same compound, the GI50 (OVCAR-3) was 22.5 µM (inactive) and the GI50 (NCI-H226) was 23.3 µM (inactive).
For `O/N=C1/C(=C/c2ccc(F)cc2)CCCC1C(NO)c1ccc(F)cc1` (stereo not given), the GI50 (COLO 205) was 33.5 µM (inactive), the GI50 (HCT-15) was 38 µM and the GI50 (SNB-19) was 52.4 µM (inactive). For the same compound, the GI50 (SF-295) was 41 µM (inactive), the GI50 (RXF 393) was 21.3 µM (inactive) and the GI50 (SK-MEL-5) was 19 µM (inactive). For the same compound, the GI50 (MOLT-4) was 22.3 µM (inactive), the GI50 (OVCAR-4) was 31.5 µM (inactive) and the GI50 (Malme-3M) was 26.7 µM (inactive). The GI50 (SN12C) was 20.8 µM (inactive), the GI50 (UO-31) was 25.6 µM (inactive) and the GI50 (SF-268) was 23.2 µM (inactive). The GI50 (M19-MEL) was 38.3 µM (inactive), the GI50 (SK-MEL-28) was 25.8 µM (inactive) and the GI50 (OVCAR-3) was 23.7 µM (inactive).
With `CCOC(OCC)(OCC)C(Br)CC` (stereo not given) the GI50 (COLO 205) was 31.8 µM (inactive), the GI50 (HCT-15) was greater than 10 µM and the GI50 (SNB-19) was > 100 µM (inactive). The GI50 (SF-295) was > 100 µM (inactive), the GI50 (RXF 393) was > 100 µM (inactive) and the GI50 (SK-MEL-5) was > 100 µM (inactive). For the same compound, the GI50 (MOLT-4) was > 100 µM (inactive), the GI50 (OVCAR-4) was > 100 µM (inactive) and the GI50 (HOP-92) was > 100 µM (inactive). For the same compound, the GI50 (Malme-3M) was > 100 µM (inactive), the GI50 (SN12C) was 64.9 µM (inactive) and the GI50 (UO-31) was > 100 µM (inactive). For the same compound, the GI50 (SF-268) was 36.7 µM (inactive), the GI50 (M19-MEL) was > 100 µM (inactive) and the GI50 (SK-MEL-28) was > 100 µM (inactive). For the same compound, the GI50 (OVCAR-3) was > 100 µM (inactive) and the GI50 (NCI-H226) was > 100 µM (inactive).
`CC(=O)OCC1OC(Nc2nc(O)n(C)c(=O)c2-c2csc(N)n2)C(OC(C)=O)C(OC(C)=O)C1OC(C)=O` (stereo not given) was tested, and the GI50 (COLO 205) was > 100 µM (inactive), the GI50 (HCT-15) was greater than 100 µM and the GI50 (SNB-19) was > 100 µM (inactive). The GI50 (SF-295) was > 100 µM (inactive), the GI50 (SK-MEL-5) was > 100 µM (inactive) and the GI50 (MOLT-4) was > 100 µM (inactive). For the same compound, the GI50 (OVCAR-4) was > 100 µM (inactive), the GI50 (HOP-92) was > 100 µM (inactive) and the GI50 (Malme-3M) was > 100 µM (inactive). For the same compound, the GI50 (SN12C) was > 100 µM (inactive), the GI50 (UO-31) was > 100 µM (inactive) and the GI50 (SF-268) was > 100 µM (inactive). The GI50 (M19-MEL) was > 100 µM (inactive), the GI50 (SK-MEL-28) was > 100 µM (inactive) and the GI50 (OVCAR-3) was > 100 µM (inactive). For the same compound, the GI50 (NCI-H226) was > 100 µM (inactive).
With `CC(=O)OCc1ncccc1C(OC(C)=O)OC(C)=O` the GI50 (COLO 205) was > 100 µM (inactive), the GI50 (HCT-15) was greater than 100 µM and the GI50 (SNB-19) was > 100 µM (inactive). For the same compound, the GI50 (SF-295) was > 100 µM (inactive), the GI50 (RXF 393) was > 100 µM (inactive) and the GI50 (SK-MEL-5) was > 100 µM (inactive). The GI50 (MOLT-4) was > 100 µM (inactive), the GI50 (OVCAR-4) was > 100 µM (inactive) and the GI50 (HOP-92) was > 100 µM (inactive). For the same compound, the GI50 (Malme-3M) was > 100 µM (inactive), the GI50 (SN12C) was > 100 µM (inactive) and the GI50 (UO-31) was > 100 µM (inactive). The GI50 (SF-268) was > 100 µM (inactive), the GI50 (M19-MEL) was > 100 µM (inactive) and the GI50 (SK-MEL-28) was > 100 µM (inactive). For the same compound, the GI50 (OVCAR-3) was > 100 µM (inactive).
With `CCOc1ccc(OCC(=O)O)c2c1CCCC2=O` the GI50 (COLO 205) was > 100 µM (inactive), the GI50 (HCT-15) was greater than 100 µM and the GI50 (SNB-19) was > 100 µM (inactive). For the same compound, the GI50 (SF-295) was > 100 µM (inactive), the GI50 (RXF 393) was > 100 µM (inactive) and the GI50 (SK-MEL-5) was > 100 µM (inactive). For the same compound, the GI50 (MOLT-4) was > 100 µM (inactive), the GI50 (OVCAR-4) was > 100 µM (inactive) and the GI50 (HOP-92) was > 100 µM (inactive). The GI50 (Malme-3M) was > 100 µM (inactive), the GI50 (SN12C) was > 100 µM (inactive) and the GI50 (UO-31) was > 100 µM (inactive). The GI50 (SF-268) was > 100 µM (inactive), the GI50 (M19-MEL) was > 100 µM (inactive) and the GI50 (SK-MEL-28) was > 100 µM (inactive). The GI50 (OVCAR-3) was > 100 µM (inactive) and the GI50 (NCI-H226) was > 100 µM (inactive).
With `COc1cccc2c1C(=O)c1c(O)c3c(c(O)c1C2=O)C[C@@](O)(C(=O)CO)CC3OC1CC(NCCCCC(OC(C)=O)OC(C)=O)C(O)C(C)O1` (stereo not given in full) the GI50 (HCT-15) was 0.00246 µM, the GI50 (SNB-19) was 0.00329 µM (active) and the GI50 (SF-295) was 0.0034 µM (active). For the same compound, the GI50 (RXF 393) was 0.00193 µM (active), the GI50 (MOLT-4) was 0.00235 µM (active) and the GI50 (OVCAR-4) was 0.00157 µM (active). For the same compound, the GI50 (HOP-92) was 0.0032 µM (active), the GI50 (Malme-3M) was 0.0048 µM (active) and the GI50 (SN12C) was 0.00348 µM (active). For the same compound, the GI50 (UO-31) was 0.00192 µM (active), the GI50 (SF-268) was 0.00313 µM (active) and the GI50 (M19-MEL) was 0.00345 µM (active). The GI50 (SK-MEL-28) was 0.00335 µM (active), the GI50 (OVCAR-3) was 0.00349 µM (active) and the GI50 (NCI-H226) was 0.00227 µM (active).
